Reference: US20180016593A1, “HERBICIDE-RESISTANT SUNFLOWER PLANTS, POLYNUCLEOTIDES ENCODING HERBICIDE-RESISTANT ACETOHYDROXYACID SYNTHASE LARGE SUBUNIT PROTEINS, AND METHODS OF USE” (priority 2005, published 2018)
Like-named read-outs stand apart in the source and are kept apart here.

How the values were obtained:
Assay type in all cases: in vivo, Helianthus annuus
Conditions in all cases: 14 DAT
[1] = tested on: sunflower TH12 (Restorer Line, A122T)
Experimental: (§1) A greenhouse study was conducted to quantify and contrast the imazapir sensivity of the mutants A122T and A205V in different genetic backgrounds at the whole plant level in sunflower. Seeds of the different sunflower lines that were used in this study were obtained under field conditions.
(§2) Seeds were sown in Petri dishes and, after germination, plantlets were transplanted to pots of 10 cm of diameter in a potting media consisting of equal parts of vermiculite, soil and sand. Plants were grown in a greenhouse under natural light conditions supplemented with 400 W sodium halide lamps to provide a 16 hrs daylength. Day/night temperatures were 25 and 20° C., respectively. At the V2 stage 10 plants of each genotype were randomly assigned to each treatment consisting of […] imazapir doses (0, 40, 80, 160, 240, 320, 400 and 480 g ai/ha), and a zero-time biomass determination. Experiment was arranged as a randomized block design with a full factorial (sunflower line×treatment) arrangement of treatments and 10 replications.
(§3) On the day of herbicide application ten plants of each genotype were cut at the cotyledonal node and dried at 60° C. for 48 hrs zero-time for dried weight determination.
(§4) Height was determined as the distance between the cotyledonal node and the apex of each plant. For root biomass determination, each plant was taken from the pot and the potting media was washed out from the roots. Above ground biomass data from each line were converted to biomass accumulation after application by subtracting the appropriate average zero-time biomass from each sample. Dry biomass data were converted to percentages of the untreated control plants within each line to allow direct comparisons between groups. […]

[2] = tested on: sunflower TH11 (Hybrid, A122T)
Experimental: as §1, §2, §3, §4

[3] = tested on: sunflower TH6 (Hybrid, A122T)
Experimental: as §1, §2, §3, §4

[4] = tested on: sunflower TH9 (Hybrid, A205V)

Compound: CC(C)C1(C)N=C(c2ncccc2C(=O)O)NC1=O (stereo not shown) [imazapyr]
- Phytotoxicity Index ([1]; 0.5x (40 g ai/ha)): 0.0
- biomass accumulation (above ground dry weight) ([1]; 0.5x (40 g ai/ha)): 100.0 % of untreated plots
- plant height ([1]; 0.5x (40 g ai/ha)): 100.0 % of untreated plots
- root dry weight ([1]; 0.5x (40 g ai/ha)): 99.4 % of untreated plots
- Phytotoxicity Index ([1]; 1x (80 g ai/ha)): 0.0
- biomass accumulation (above ground dry weight) ([1]; 1x (80 g ai/ha)): 99.1 % of untreated plots
- plant height ([1]; 1x (80 g ai/ha)): 100.0 % of untreated plots
- root dry weight ([1]; 1x (80 g ai/ha)): 100 % of untreated plots
- Phytotoxicity Index ([1]; 2x (160 g ai/ha)): 0.0
- biomass accumulation (above ground dry weight) ([1]; 2x (160 g ai/ha)): 97.0 % of untreated plots
- plant height ([1]; 2x (160 g ai/ha)): 101.8 % of untreated plots
- root dry weight ([1]; 2x (160 g ai/ha)): 100 % of untreated plots
- Phytotoxicity Index ([1]; 3x (240 g ai/ha)): 0.0
- biomass accumulation (above ground dry weight) ([1]; 3x (240 g ai/ha)): 96.1 % of untreated plots
- plant height ([1]; 3x (240 g ai/ha)): 97.0 % of untreated plots
- root dry weight ([1]; 3x (240 g ai/ha)): 100.0 % of untreated plots
- Phytotoxicity Index ([1]; 4x (320 g ai/ha)): 0.0
- biomass accumulation (above ground dry weight) ([1]; 4x (320 g ai/ha)): 84.3 % of untreated plots
- plant height ([1]; 4x (320 g ai/ha)): 92.1 % of untreated plots
- root dry weight ([1]; 4x (320 g ai/ha)): 74.5 % of untreated plots
- Phytotoxicity Index ([1]; 5x (400 g ai/ha)): 0.0
- biomass accumulation (above ground dry weight) ([1]; 5x (400 g ai/ha)): 77.5 % of untreated plots
- plant height ([1]; 5x (400 g ai/ha)): 84.8 % of untreated plots
- root dry weight ([1]; 5x (400 g ai/ha)): 65.0 % of untreated plots
- Phytotoxicity Index ([1]; 6x (480 g ai/ha)): 0.5
- biomass accumulation (above ground dry weight) ([1]; 6x (480 g ai/ha)): 70.7 % of untreated plots
- plant height ([1]; 6x (480 g ai/ha)): 79.8 % of untreated plots
- root dry weight ([1]; 6x (480 g ai/ha)): 57.8 % of untreated plots
- Phytotoxicity Index ([2]; 0.5x (40 g ai/ha)): 0.4
- biomass accumulation (above ground dry weight) ([2]; 0.5x (40 g ai/ha)): 96.6 % of untreated plots
- plant height ([2]; 0.5x (40 g ai/ha)): 100.4 % of untreated plots
- root dry weight ([2]; 0.5x (40 g ai/ha)): 100 % of untreated plots
- Phytotoxicity Index ([2]; 1x (80 g ai/ha)): 0.4
- biomass accumulation (above ground dry weight) ([2]; 1x (80 g ai/ha)): 93.9 % of untreated plots
- plant height ([2]; 1x (80 g ai/ha)): 99.9 % of untreated plots
- root dry weight ([2]; 1x (80 g ai/ha)): 99.0 % of untreated plots
- Phytotoxicity Index ([2]; 2x (160 g ai/ha)): 0.4
- biomass accumulation (above ground dry weight) ([2]; 2x (160 g ai/ha)): 81.6 % of untreated plots
- plant height ([2]; 2x (160 g ai/ha)): 92.0 % of untreated plots
- root dry weight ([2]; 2x (160 g ai/ha)): 86.1 % of untreated plots
- Phytotoxicity Index ([2]; 3x (240 g ai/ha)): 0.5
- biomass accumulation (above ground dry weight) ([2]; 3x (240 g ai/ha)): 75.8 % of untreated plots
- plant height ([2]; 3x (240 g ai/ha)): 90.5 % of untreated plots
- root dry weight ([2]; 3x (240 g ai/ha)): 81.5 % of untreated plots
- Phytotoxicity Index ([2]; 4x (320 g ai/ha)): 1.0
- biomass accumulation (above ground dry weight) ([2]; 4x (320 g ai/ha)): 75.0 % of untreated plots
- plant height ([2]; 4x (320 g ai/ha)): 90.8 % of untreated plots
- root dry weight ([2]; 4x (320 g ai/ha)): 72.6 % of untreated plots
- Phytotoxicity Index ([2]; 5x (400 g ai/ha)): 2.0
- biomass accumulation (above ground dry weight) ([2]; 5x (400 g ai/ha)): 60.1 % of untreated plots
- plant height ([2]; 5x (400 g ai/ha)): 84.4 % of untreated plots
- root dry weight ([2]; 5x (400 g ai/ha)): 68.9 % of untreated plots
- Phytotoxicity Index ([2]; 6x (480 g ai/ha)): 2.5
- biomass accumulation (above ground dry weight) ([2]; 6x (480 g ai/ha)): 59.6 % of untreated plots
- plant height ([2]; 6x (480 g ai/ha)): 84.4 % of untreated plots
- root dry weight ([2]; 6x (480 g ai/ha)): 45.3 % of untreated plots
- Phytotoxicity Index ([3]; 0.5x (40 g ai/ha)): 0.5
- biomass accumulation (above ground dry weight) ([3]; 0.5x (40 g ai/ha)): 100 % of untreated plots
- plant height ([3]; 0.5x (40 g ai/ha)): 99.2 % of untreated plots
- root dry weight ([3]; 0.5x (40 g ai/ha)): 100 % of untreated plots
- Phytotoxicity Index ([3]; 1x (80 g ai/ha)): 0.5
- biomass accumulation (above ground dry weight) ([3]; 1x (80 g ai/ha)): 97.2 % of untreated plots
- plant height ([3]; 1x (80 g ai/ha)): 98.6 % of untreated plots
- root dry weight ([3]; 1x (80 g ai/ha)): 98.1 % of untreated plots
- Phytotoxicity Index ([3]; 2x (160 g ai/ha)): 0.5
- biomass accumulation (above ground dry weight) ([3]; 2x (160 g ai/ha)): 97.9 % of untreated plots
- plant height ([3]; 2x (160 g ai/ha)): 100.3 % of untreated plots
- root dry weight ([3]; 2x (160 g ai/ha)): 98.2 % of untreated plots
- Phytotoxicity Index ([3]; 3x (240 g ai/ha)): 0.5
- biomass accumulation (above ground dry weight) ([3]; 3x (240 g ai/ha)): 98.2 % of untreated plots
- plant height ([3]; 3x (240 g ai/ha)): 99.8 % of untreated plots
- root dry weight ([3]; 3x (240 g ai/ha)): 79.3 % of untreated plots
- Phytotoxicity Index ([3]; 4x (320 g ai/ha)): 0.5
- biomass accumulation (above ground dry weight) ([3]; 4x (320 g ai/ha)): 97.8 % of untreated plots
- plant height ([3]; 4x (320 g ai/ha)): 101.0 % of untreated plots
- root dry weight ([3]; 4x (320 g ai/ha)): 78.4 % of untreated plots
- Phytotoxicity Index ([3]; 5x (400 g ai/ha)): 0.5
- biomass accumulation (above ground dry weight) ([3]; 5x (400 g ai/ha)): 85.1 % of untreated plots
- plant height ([3]; 5x (400 g ai/ha)): 87.0 % of untreated plots
- root dry weight ([3]; 5x (400 g ai/ha)): 85.8 % of untreated plots
- Phytotoxicity Index ([3]; 6x (480 g ai/ha)): 0.5
- biomass accumulation (above ground dry weight) ([3]; 6x (480 g ai/ha)): 79.5 % of untreated plots
- plant height ([3]; 6x (480 g ai/ha)): 79.6 % of untreated plots
- root dry weight ([3]; 6x (480 g ai/ha)): 57.3 % of untreated plots
- Phytotoxicity Index ([4]; 0.5x (40 g ai/ha)): 0
- biomass accumulation (above ground dry weight) ([4]; 0.5x (40 g ai/ha)): 91.7 % of untreated plots
- plant height ([4]; 0.5x (40 g ai/ha)): 100.0 % of untreated plots
- root dry weight ([4]; 0.5x (40 g ai/ha)): 81.5 % of untreated plots
- Phytotoxicity Index ([4]; 1x (80 g ai/ha)): 0
- biomass accumulation (above ground dry weight) ([4]; 1x (80 g ai/ha)): 81.7 % of untreated plots
- plant height ([4]; 1x (80 g ai/ha)): 100.0 % of untreated plots
- root dry weight ([4]; 1x (80 g ai/ha)): 84.9 % of untreated plots
- Phytotoxicity Index ([4]; 2x (160 g ai/ha)): 1.6
- biomass accumulation (above ground dry weight) ([4]; 2x (160 g ai/ha)): 54.7 % of untreated plots
- plant height ([4]; 2x (160 g ai/ha)): 78.9 % of untreated plots
- root dry weight ([4]; 2x (160 g ai/ha)): 58.8 % of untreated plots
- Phytotoxicity Index ([4]; 3x (240 g ai/ha)): 5.1
- biomass accumulation (above ground dry weight) ([4]; 3x (240 g ai/ha)): 35.7 % of untreated plots
- plant height ([4]; 3x (240 g ai/ha)): 50.0 % of untreated plots
- root dry weight ([4]; 3x (240 g ai/ha)): 34.1 % of untreated plots
- Phytotoxicity Index ([4]; 4x (320 g ai/ha)): 8.4
- biomass accumulation (above ground dry weight) ([4]; 4x (320 g ai/ha)): 25.3 % of untreated plots
- plant height ([4]; 4x (320 g ai/ha)): 38.1 % of untreated plots
- root dry weight ([4]; 4x (320 g ai/ha)): 27.3 % of untreated plots
- Phytotoxicity Index ([4]; 5x (400 g ai/ha)): 8.9
- biomass accumulation (above ground dry weight) ([4]; 5x (400 g ai/ha)): 19.8 % of untreated plots
- plant height ([4]; 5x (400 g ai/ha)): 31.8 % of untreated plots
- root dry weight ([4]; 5x (400 g ai/ha)): 29.9 % of untreated plots
- Phytotoxicity Index ([4]; 6x (480 g ai/ha)): 8.9
- biomass accumulation (above ground dry weight) ([4]; 6x (480 g ai/ha)): 19.5 % of untreated plots
- plant height ([4]; 6x (480 g ai/ha)): 34.7 % of untreated plots
- root dry weight ([4]; 6x (480 g ai/ha)): 22.1 % of untreated plots
